{
  "source": "patent US20060020029A1",
  "about": "“Pharmaceutical compositions from ethnobotanicals” (priority 2004, published 2006)",
  "key": {"RSV B": {"tested_on": "RSV B", "assay": "CPE assay, RSV-B in Hep-2 cells", "type": "cell-based, respiratory syncytial virus"}, "[1]": {"tested_on": "Herpes simplex virus type 2 (MS-strain)", "assay": "CPE assay, HSV-2 specificity", "type": "cell-based", "procedure": "To determine whether the fractions are specific RSV inhibitors rather than general antiviral agents, the inventors tested them against influenza type A/Shangdong/09/93 (H3N2), herpes simplex type 1 (MacItyre), and herpes simplex type 2 (MS) using the CPE assay system.\nCJ4-16-4 was tested using influenza type A, herpes simplex virus type 1, and herpes simplex virus type 2 using the CPE assay with MDCK or Vero cells."}, "[2]": {"assay": "Stability in methanol (HPLC)", "type": "physicochemical", "procedure": "The stability of 3,5 Dicaffeoyl-Quinic Acid (3,5-DCQA) was first evaluated in methanol. 3.8 mg 3,5-DCQA was dissolved in 0.2375 ml MeOH (conc.=16 mg/ml), and then diluted as ½, ¼ and ⅛ dilution, respectively. All samples were subjected to HPLC in 0 Day, 1 Day, 2 Day and 4 Day, and the Area% of 3,5-DCQA was calculated."}, "RSV-A6 57754": {"tested_on": "RSV-A6 57754", "assay": "CPE assay, RSV-A6 57754 in Hep-2 cells", "description": "The cell line was propagated in MEM supplemented with 10% heat-inactivated fetal bovine serum (FBS) containing 100 μg/ml of antibiotics (streptomycin/penicillin). […] The overnight medium (MEM containing 10% FBS) was removed, and wells were rinsed twice with 1× phosphate buffer saline (PBS, 200 μl) before adding 10×TCID50 of RSV suspension in fresh medium (MEM plus 2% FBS) to each well, except for cell only wells. […] CellTiter 96 Aqueous Non-Radioactive Cell Proliferation Assay (Promega) was used to monitor the antiviral activity following the manufacturer's instruction. After incubation, the cells were rinsed twice with 200 μl of 1×PBS prior to the addition of 100 μl of fresh medium (MEM plus 10% FBS). […] The extent of cell viability was measured at 490 nm using an ELISA reader, and the absorbance was used to calculate percent inhibition. Antiviral activity of each EB fraction or ribavirin is expressed as IC50, which represents the concentration of the test substance required to reduce the virus infection (as measured by the destruction of the host cells) by 50%.\nHep-2 cells were used in the CPE assay to determine anti-RSV properties."}},
  "data": [
    {"smiles": "O=C(/C=C/c1ccc(O)c(O)c1)OC1CC(O)(C(=O)O)CC(OC(=O)/C=C/c2ccc(O)c(O)c2)C1O", "note": "(stereo not shown) [CJ4-16-4, 3,5-di-O-caffeoylquinic acid]", "values": [
      {"measurement": "EC50, RSV-B (Washington)", "setting": "RSV B; Hep-2 cells, CPE assay", "value": 0.086, "unit": "µg/mL"},
      {"measurement": "EC50", "setting": "RSV B; μM using the estimated FW-516, read-out: EC50, RSV-B (Washington)", "value": 0.167, "unit": "µM"},
      {"measurement": "activity against HSV-2 (in words)", "setting": "[1]", "value": "inactive"},
      {"measurement": "EC50, Herpes simplex virus type 2 (MS-strain)", "setting": "[1]; CPE assay with MDCK or Vero cells", "value": "> 50", "unit": "µg/mL"},
      {"measurement": "EC50", "setting": "[1]; μM using the estimated FW-516", "value": "> 100", "unit": "µM"},
      {"measurement": "Area % of 3,5-DCQA (HPLC)", "setting": "[2]; Stock (16 mg/ml), 0 Day", "value": 97.40, "unit": "Area%"},
      {"measurement": "Area % of 3,5-DCQA (HPLC)", "setting": "[2]; Stock (16 mg/ml), 1 Day", "value": 97.16, "unit": "Area%"},
      {"measurement": "Area % of 3,5-DCQA (HPLC)", "setting": "[2]; Stock (16 mg/ml), 2 Day", "value": 96.42, "unit": "Area%"},
      {"measurement": "Area % of 3,5-DCQA (HPLC)", "setting": "[2]; Stock (16 mg/ml), 4 Day", "value": 95.39, "unit": "Area%"},
      {"measurement": "Area % of 3,5-DCQA (HPLC)", "setting": "[2]; ¼ dilution, 2 Day", "value": 96.65, "unit": "Area%"},
      {"measurement": "Area % of 3,5-DCQA (HPLC)", "setting": "[2]; ¼ dilution, 4 Day", "value": 95.88, "unit": "Area%"},
      {"measurement": "Area % of 3,5-DCQA (HPLC)", "setting": "[2]; ½ dilution, 2 Day", "value": 97.03, "unit": "Area%"},
      {"measurement": "Area % of 3,5-DCQA (HPLC)", "setting": "[2]; ½ dilution, 4 Day", "value": 95.66, "unit": "Area%"},
      {"measurement": "Area % of 3,5-DCQA (HPLC)", "setting": "[2]; ⅛ dilution, 0 Day", "value": 97.32, "unit": "Area%"},
      {"measurement": "Area % of 3,5-DCQA (HPLC)", "setting": "[2]; ⅛ dilution, 1 Day", "value": 96.84, "unit": "Area%"},
      {"measurement": "Area % of 3,5-DCQA (HPLC)", "setting": "[2]; ⅛ dilution, 2 Day", "value": 94.44, "unit": "Area%"},
      {"measurement": "Area % of 3,5-DCQA (HPLC)", "setting": "[2]; ⅛ dilution, 4 Day", "value": 94.27, "unit": "Area%"},
      {"measurement": "EC50, RSV-A6 57754", "setting": "RSV-A6 57754; Hep-2 cells, CPE assay", "value": 0.08, "unit": "µg/mL"},
      {"measurement": "EC50", "setting": "RSV-A6 57754; read-out: EC50, RSV-A6 57754, μM using the estimated FW-516", "value": 0.16, "unit": "µM"}
    ]}
  ]
}
